Laboratory results taken from ChEMBL document CHEMBL1125857, “Synthesis of substrate-based inhibitors of HMG CoA reductase (II)” (Bioorg Med Chem Lett, 1991).

Molecular target: T1, 3-hydroxy-3-methylglutaryl-coenzyme A reductase (Rattus norvegicus, UniProt P51639)
T1 sequence (P51639 whole entry): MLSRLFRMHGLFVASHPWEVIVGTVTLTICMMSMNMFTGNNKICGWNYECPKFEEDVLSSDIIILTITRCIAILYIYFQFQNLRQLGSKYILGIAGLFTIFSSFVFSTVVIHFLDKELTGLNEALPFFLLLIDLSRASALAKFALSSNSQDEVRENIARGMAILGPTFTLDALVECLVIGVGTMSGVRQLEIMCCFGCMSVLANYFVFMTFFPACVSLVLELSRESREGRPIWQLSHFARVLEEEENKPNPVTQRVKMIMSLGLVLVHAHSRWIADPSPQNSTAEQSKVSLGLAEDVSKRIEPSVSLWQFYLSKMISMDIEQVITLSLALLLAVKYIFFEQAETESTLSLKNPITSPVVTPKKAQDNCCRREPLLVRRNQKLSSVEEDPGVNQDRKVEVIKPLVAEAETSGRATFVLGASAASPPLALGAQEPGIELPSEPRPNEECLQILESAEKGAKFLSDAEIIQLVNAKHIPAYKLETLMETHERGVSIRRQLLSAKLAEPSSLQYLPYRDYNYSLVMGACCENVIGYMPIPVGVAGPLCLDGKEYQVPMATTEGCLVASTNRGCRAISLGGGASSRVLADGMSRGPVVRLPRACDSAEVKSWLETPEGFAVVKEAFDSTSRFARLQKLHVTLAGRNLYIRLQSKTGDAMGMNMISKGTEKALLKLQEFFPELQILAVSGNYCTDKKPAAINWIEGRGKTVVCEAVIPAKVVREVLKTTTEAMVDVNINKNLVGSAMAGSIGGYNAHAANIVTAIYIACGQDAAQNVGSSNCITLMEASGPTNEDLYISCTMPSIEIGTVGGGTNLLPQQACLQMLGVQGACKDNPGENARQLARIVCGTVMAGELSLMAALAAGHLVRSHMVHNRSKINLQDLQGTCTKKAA
Experiment: Compound was tested for inhibitory activity against rat hepatic microsomal HMG-CoA reductase; lacked significant inhibitory activity
Conditions: read-out: I50

IC50 | Structure (SMILES)
> 1 mM | CC(C)[C@@H](O)C(=O)NCCC(=O)NCCNC(=O)C[C@@](C)(O)CC(=O)O
> 1 mM | CC(C)[C@@H](O)C(=O)NCCC(=O)NCCNC(=O)C[C@@H](O)CC(=O)O
> 1 mM | CC(C)[C@@H](O)C(=O)NCCC(=O)NCCNCC(O)CC(O)CC(=O)O (stereo partly drawn)
